Measurements reported in patent US11186588B2 (AYUMI PHARMACEUTICAL CORPORATION, priority 2017, dated 2021).

What follows are molecules tested against Recombinant BRD4 (44-168) protein (Homo sapiens (Human), UniProt O60885) (assay: BRD4-H4KAc4 binding assay (amplified luminescence proximity homogeneous assay, AlphaScreen)). Conditions: not given.
Method: In order to evaluate BRD4 inhibitory activity of the present compounds, BRD4-H4KAc4 binding assay was carried out by an amplified luminescence proximity homogeneous assay. The specific method is described below.
H4KAc4 peptide (available from Toray Research Center, Inc., sequence SGRGK(Ac)GGK(Ac)GLGK(Ac)GGAK(Ac)RHR-K(Biotin)-NH2) was dissolved in 1×Assay buffer to prepare 1 mM H4KAc4 peptide stock solution.
N-terminal His tag/C-terminal FLAG tag-fused type Recombinant BRD4 (44-168) protein (available from Active Motif, Cat No. 31380) was diluted with 1×Assay buffer to 1,250-fold to prepare 250 nM BRD4 solution.
1% DMSO solution (control) and 2 μL of each compound solution in each concentration were added to each well of AlphaPlate-384 (from PerkinElmer, Cat No. 6008350). Next, 2 μL of 250 nM BRD4 solution was added to each well of AlphaPlate-384. Further, 2 μL of 250 nM H4KAc4 peptide solution was added to each well of AlphaPlate-384. After addition of the 250 nM H4KAc4 peptide solution, the mixture was allowed to stand at room temperature under light shielding for 60 minutes, and 4 μL of AlphaScreen beads were added to each well of AlphaPlate-384. After addition of the AlphaScreen beads, the mixture was allowed to stand at room temperature under light shielding for 60 minutes, emission at 520-620 nm upon excitation at 680 nm was detected by EnVision multilabel counter (from PerkinElmer), and binding of BRD4 and H4KAc4 was detected. Incidentally, the evaluation of each compound was carried out in duplicate (2 well per 1 compound).
(§1) The BRD4 inhibition rate (%) was calculated by the following equation using Microsoft EXCEL 2010. BRD4 inhibition rate (%)=100−{(luminescence intensity average value of each compound added well)−(average value of luminescence intensity of blank well))/(average value of luminescence intensity of control well)−(average value of luminescence intensity of blank well)}×100

Structure (SMILES) | inhibition at 10 µM
Cc1nnc2n1-c1sccc1C(c1ccc(Cl)cc1)=NN2 [Example 59, 4-(4-chlorophenyl)-9-methyl-6H-thieno[2,3-e][1,2,4]triazolo[3,4-c][1,2,4]triazepine] | 100%

Same assay, conditions: 10 uM

Structure (SMILES) | inhibition at 10 µM | BRD4-H4KAc4 binding % of inhibition@10 uM
Cc1sc2c(c1C)C(c1ccc(Cl)cc1)=NN(C(=O)NCc1ccccc1)c1nnc(C)n1-2 [Example 35, N-benzyl-4-(4-chlorophenyl)-2,3,9-trimethyl-6H-thieno[2,3-e][1,2,4]triazolo[3,4-c][1,2,4]triazepine-6-carboxamide] | 6.6% | –
Cc1sc2c(c1C)C(c1ccccc1)=NN(Cc1cccnc1)c1nnc(C)n1-2 [Example 30, 2,3,9-trimethyl-4-phenyl-6-(pyridin-3-ylmethyl)-6H-thieno[2,3-e]-[1,2,4]triazolo[3,4-c][1,2,4]triazepine] | 101% | –
Cc1sc2c(c1C)C(c1ccccc1)=NN(Cc1ccncc1)c1nnc(C)n1-2 [Example 32, 2,3,9-trimethyl-4-phenyl-6-(pyridin-4-ylmethyl)-6H-thieno[2,3-e][1,2,4]triazolo[3,4-c][1,2,4]triazepine] | 100% | –
Cc1sc2c(c1C)C(c1ccc(Cl)cc1)=NN(C(=O)Nc1ccccc1)c1nnc(C)n1-2 [Example 15, 4-(4-Chlorophenyl)-2,3,9-trimethyl-N-phenyl-6H-thieno[2,3-e][1,2,4]triazolo[3,4-c][1,2,4]triazepine-6-carboxamide] | 22.3% | –
Cc1sc2c(c1C)C(c1ccc(Cl)cc1)=NN(Cc1ccccc1C(F)(F)F)c1nnc(C)n1-2 [Example 17, 4-(4-chlorophenyl)-2,3,9-trimethyl-6-(2-(trifluoromethyl)benzyl)-6H-thieno[2,3-e][1,2,4]triazolo[3,4-c][1,2,4]triazepine] | 69.7% | –
Cc1sc2c(c1C)C(c1ccc(Cl)cc1)=NNc1nnc(C)n1-2 [Example 1, 4-(4-chlorophenyl)-2,3,9-trimethyl-6H-thieno[2,3-e][1,2,4]triazolo[3,4-c][1,2,4]triazepine] | 99.9% | –
Cc1nnc2n1-c1sccc1C(c1ccc(Cl)cc1)=NN2Cc1ccccn1 [Example 62, 4-(4-chlorophenyl)-9-methyl-6-(pyridin-2-ylmethyl)-6H-thieno[2,3-e][1,2,4]triazolo[3,4-c][1,2,4]triazepine] | 100% | –
COc1ccc(CN2N=C(c3ccc(Cl)cc3)c3c(sc(C)c3C)-n3c(C)nnc32)cc1 [Example 2, 4-(4-chlorophenyl)-6-(4-methoxybenzyl)-2,3,9-trimethyl-6H-thieno[2,3-e][1,2,4]triazolo[3,4-c][1,2,4]triazepine] | 100% | –
COc1ccc(CN2N=C(c3ccccc3)c3c(sc(C)c3C)-n3c(C)nnc32)cc1 [Example 28, 6-(4-methoxybenzyl)-2,3,9-trimethyl-4-phenyl-6H-thieno[2,3-e][1,2,4]triazolo[3,4-c][1,2,4]triazepine] | 101% | –
COc1ccc(CN2N=C(c3ccc(Cl)cc3)c3c(C)csc3-n3c(C)nnc32)cc1 [Example 66, 4-(4-chlorophenyl)-6-(4-methoxybenzyl)-3,9-dimethyl-6H-thieno[2,3-e][1,2,4]triazolo[3,4-c][1,2,4]triazepine] | 100% | –
COc1cccnc1CN1N=C(c2ccc(Cl)cc2)c2c(sc(C)c2C)-n2c(C)nnc21 [Example 54, 4-(4-chlorophenyl)-6-((3-methoxypyridin-2-yl)methyl)-2,3,9-trimethyl-6H-thieno[2,3-e][1,2,4]triazolo[3,4-c][1,2,4]triazepine] | 99.9% | –
Cc1sc2c(c1C)C(c1ccc(Cl)cc1)=NN(Cc1ccc(Cl)nc1)c1nnc(C)n1-2 [Example 37, 4-(4-chlorophenyl)-6-((6-chloropyridin-3-yl)methyl)-2,3,9-trimethyl-6H-thieno[2,3-e][1,2,4]triazolo[3,4-c][1,2,4]triazepine] | 100% | –
Cc1sc2c(c1C)C(c1ccc(Cl)cc1)=NN(Cc1cccnc1)c1nnc(C)n1-2 [Example 4, 4-(4-chlorophenyl)-2,3,9-trimethyl-6-(pyridin-3-ylmethyl)-6H-thieno[2,3-e][1,2,4]triazolo[3,4-c][1,2,4]triazepine] | 100% | –
Cc1sc2c(c1C)C(c1ccc(Cl)cc1)=NN(CCCc1ccccc1)c1nnc(C)n1-2 [Example 20, 4-(4-chlorophenyl)-2,3,9-trimethyl-6-(3-phenylpropyl)-6H-thieno[2,3-e][1,2,4]triazolo[3,4-c][1,2,4]triazepine] | 82.2% | –
COc1ccc(CN2N=C(c3ccc(Cl)cc3)c3cccnc3-n3c(C)nnc32)cc1 [Example 67, 5-(4-chlorophenyl)-7-(4-methoxybenzyl)-10-methyl-7H-pyrido[2,3-e][1,2,4]triazolo[3,4-c][1,2,4]triazepine] | 100% | –

The next lines start with the values.

inhibition at 10 µM | BRD4-H4KAc4 binding % of inhibition@10 uM | Structure (SMILES)
13.3% | – | CCNC(=O)c1ncccc1CN1N=C(c2ccc(Cl)cc2)c2c(sc(C)c2C)-n2c(C)nnc21 [Example 85, 3-((4-(4-chlorophenyl)-2,3,9-trimethyl-6H-thieno[2,3-e][1,2,4]triazolo[3,4-c][1,2,4]triazepin-6-yl)methyl)-N-ethylpicolinamide]
100% | – | Cc1sc2c(c1C)C(c1ccc(Cl)cc1)=NN(Cc1cccnc1C(=O)O)c1nnc(C)n1-2 [Example 84, 3-((4-(4-chlorophenyl)-2,3,9-trimethyl-6H-thieno[2,3-e][1,2,4]triazolo[3,4-c][1,2,4]triazepin-6-yl)methyl)picolinic acid]
100% | – | Cc1sc2c(c1C)C(c1ccccc1Cl)=NN(Cc1cccnc1)c1nnc(C)n1-2 [Example 72, 4-(2-chlorophenyl)-2,3,9-trimethyl-6-(pyridin-3-ylmethyl)-6H-thieno[2,3-e][1,2,4]triazolo[3,4-c][1,2,4]triazepine]
52% | – | COc1ccc(CN2N=C(c3ccc(Cl)cc3)c3c(sc(C)c3C)-n3c2nnc3C(F)(F)F)cc1 [Example 69, 4-(4-chlorophenyl)-6-(4-methoxybenzyl)-2,3-dimethyl-9-(trifluoromethyl)-6H-thieno[2,3-e][1,2,4]triazolo[3,4-c][1,2,4]triazepine]
– | 22.4% | Cc1sc2c(c1C)C(c1ccc(Cl)cc1)=NN(C(=O)Nc1ccccc1)c1nnc(C)n1-2 [Example 91, 4-(4-chlorophenyl)-2,3,9-trimethyl-N-phenyl-6H-thieno[2,3-e][1,2,4]triazolo[3,4-c][1,2,4]triazepine-6-carboxamide]
19.2% | – | COc1ccc(CN2N=C(c3ccc(Cl)cc3)c3c(sc(C)c3C)-n3c(CO)nnc32)cc1 [Example 68, (4-(4-chlorophenyl)-6-(4-methoxybenzyl)-2,3-dimethyl-6H-thieno[2,3-e][1,2,4]triazolo[3,4-c][1,2,4]triazepin-9-yl)methanol]
100% | – | COc1ccc(C2=NN(Cc3cccnc3)c3nnc(C)n3-c3sc(C)c(C)c32)cc1 [Example 76, 4-(4-methoxyphenyl)-2,3,9-trimethyl-6-(pyridin-3-ylmethyl)-6H-thieno[2,3-e][1,2,4]triazolo[3,4-c][1,2,4]triazepine]

These molecules were tested on NF-κB (assay: NF-κB reporter gene assay (TNF-α stimulated A549/NF-κB-luc cells)). Conditions: Homo sapiens, TNF-α stimulation.
Format: cell-based
Method: In order to evaluate NF-κB inhibitory activity of the present compounds, NF-κB reporter gene assay was carried out. The specific method is described below.
Gene recombinant human TNF-α (available from R&D systems, Cat No. 210-TA) was dissolved in D-PBS(−) (available from Wako Pure Chemical Industries, Ltd., Cat No. 293-72601) to prepare 100 μg/mL of TNF-α solution stock solution. 100 μg/mL of the TNF-α solution stock solution was diluted with the culture medium to prepare 10 ng/mL of TNF-α solution.
A549/NF-κB-luc cells (available from Panomics, Cat No. LR0051) were prepared at 375,000 cells/mL in the culture medium. The 375,000 cells/mL A549/NF-κB-luc cell suspension was seeded at 80 μL each on a white 96-well plate (available from Greiner, Cat No. 655073). One hour after seeding the cells, 10 μL of 2% DMSO solution (control) and each compound solution in each concentration were added to each well of the 96-well plate. One hour after the addition of each compound solution, 10 ng/mL of the TNF-α solution (10 μL) was added to each well of the 96-well plate. Three hours after the addition of 10 ng/mL of the TNF-α solution, 100 μL of Steady-Glo reagent (available from Promega, Cat No. E2510) was added to each well of the 96-well plate. After 30 to 90 minutes of the addition of the Steady-Glo reagent, the luminescence intensity of each well was detected by EnVision multilabel counter (available from PerkinElmer).
as §1, with “NF-κB” for “The BRD4”, “NF-κB” for “BRD4”, “well)}×100 In addition, IC50 values were calculated from the calculated NF-κB inhibition rate (%) using curve fitting software XLfit (available from IDBS).” for “well)}×100”

IC50 | Structure (SMILES)
289 nM | Cc1sc2c(c1C)C(c1ccc(N)cc1)=NN(Cc1cncc(O)c1)c1nnc(C)n1-2 [Example 103, 5-((4-(4-aminophenyl)-2,3,9-trimethyl-6H-thieno[2,3-e][1,2,4]triazolo[3,4-c][1,2,4]triazepin-6-yl)methyl)pyridin-3-ol]
